Measurements published in article PMC7918798, “Coumarins from Seseli devenyense Simonk.: Isolation by Liquid–Liquid Chromatography and Potential Anxiolytic Activity Using an In Vivo Zebrafish Larvae Model” (International Journal of Molecular Sciences, 2021).
“Also recorded” adds a separate entry of the source.

Assays:
[1] = Shake-flask partition coefficient in HEMWat biphasic solvent systems; type: physicochemical
Protocol: The screening for suitable biphasic solvent systems to isolate the target coumarins from Seseli devenyense methanolic fruit extract (SDMFE) was performed by shake-flask experiments. The partition coefficient (Pi), defined as the ratio of the concentration of a solute in the stationary phase to its concentration in the mobile phase, was used as the screening parameter. The experimental protocol was previously descried by Widelski et al. (2018). Briefly, 1 mg of crude extract was dissolved in 4 mL of biphasic solvent systems obtained by mixing various volumes of hexane, ethyl acetate, methanol and water (HEMWat). After vigorous shaking, the flasks were left until the complete separation of the layers. Then, equal volumes of the upper and lower phase (0.5 mL) were taken, evaporated to dryness, dissolved again in methanol (1.0 mL) and analyzed by HPLC-DAD analysis, as descried below.
The preliminary analysis of the SDMFE, determination of the partition coefficient values and purity of collected fractions were assessed by HPLC-DAD. The HPLC-DAD analyses were performed on a Shimadzu HPLC (Shimadzu, Tokyo, Japan) equipped with automatic degasser (DGU-20A3R), quaternary pump (LC-20AD), auto-sampler (SIL-20AHT) and diode array detector (SPD-M20A). The separations were carried out on an Agilent Zorbax Eclipse XDB-C18 (Agilent, Santa Clara, CA, USA) (250 mm × 4.6 mm, 5 μm) column with a mobile phase consisting of water (solvent A) and methanol (solvent B). The following gradient was applied: 0 min: 50% B; 5 min: 60% B; 25 min: 80% B; 30–35 min: 100% B. The flow-rate was 1 mL/min; the column temperature was set at 25 °C. The injection volume of sample was 10 μL and detection was carried out at 320 nm.

5-dpf zebrafish larvae [2] = experiment: Zebrafish larvae light/dark transition challenge: locomotor activity and thigmotaxis (anxiolytic activity assay, Phase 2); type: in vivo, Danio rerio; settings: for distance moved by the larvae in the central arena / time spent in the central area: dark phase vs light phase, concentration not stated
Protocol: (§1) The research protocol was adopted after Schnorr et al. (2012). The anxiolytic activity was evaluated in 24-well plates. The inner and outer zones of the well were delineated according to Schnorr et al. (2012). […] It could be also described as decreasing thigmotaxis. 1% DMSO in E3 solution was used as the negative control, 10 μM diazepam was used as the positive control. 32 larvae were used for each concentration.
(§2) The experimental procedure was divided into three stages: • (a) Preincubation: larvae were pre-incubated in a 1500 μL solution of tested compounds in individual wells of a 24-well plate at 28.5 °C, in dark, for 30 min. • (b) Acclimatization (min 0–10): plates were placed in an automated video recording bench station (ViewPoint, Lyon, France). Larvae were allowed to acclimatize to the test apparatus for 10 min. During this period, lights were kept on. • (c) Visual motor challenge (min 11–95): this stage experiment was divided into two phases: Phase 1—continuous illumination: larvae were subjected to continuous light for 40 min, with the purpose to determine the spontaneous locomotor activity and thigmotaxis behavior (before applying the factor causing the anxiety). Phase 2—light/dark transition: larvae were subjected to three cycles, each involving the 10-min lighting phase (continuous light) and the 5-min dark phase (anxiogenic factor).

5-dpf zebrafish larvae [3] = experiment: Zebrafish larvae 40 min continuous illumination: spontaneous locomotor activity and thigmotaxis (Phase 1); type: in vivo, Danio rerio; settings: for spontaneous locomotor activity (average distance moved): 40 min continuous illumination
Protocol: as §1, §2

[4] = solvent system I, hexane/ethyl acetate/methanol/water 2/5/2/5 (v/v/v/v)
[5] = dark phase vs DMSO-treated group in dark phase, 1.5 μM
[6] = dark phase vs DMSO-treated group in dark phase, 9 μM
[7] = dark phase vs DMSO-treated group in dark phase, 12.5 μM
[8] = dark phase vs DMSO-treated group in dark phase, 25 μM
[9] = dark phase vs light phase within same group, 1.5 μM
[10] = dark phase vs light phase within same group, 3 μM
[11] = dark phase vs light phase within same group, 6 μM
[12] = dark phase vs light phase within same group, 9 μM
[13] = dark phase vs light phase within same group, 12.5 μM
[14] = dark phase vs light phase within same group, 25 μM
[15] = dark phase vs DMSO-treated group in dark phase, 50 μM
[16] = dark phase vs light phase within same group, 50 μM
[17] = light phase vs DMSO-treated group in light phase, 12.5 μM
[18] = light phase vs DMSO-treated group in light phase, 25 μM
[19] = light phase vs DMSO-treated group in light phase, 50 μM
[20] = dark phase vs DMSO-treated group in dark phase, 6 μM
[21] = dark phase vs DMSO-treated group in dark phase, 15 μM
[22] = dark phase vs light phase within same group, 15 μM
[23] = dark phase vs DMSO-treated group in dark phase, diazepam 10 μM
[24] = dark phase vs light phase within same group, diazepam 10 μM
[25] = light phase vs DMSO-treated group in light phase, diazepam 10 μM
[26] = 40 min continuous illumination vs DMSO-treated control group, diazepam 10 µM

Structure (SMILES): CC1(C)Oc2ccc3ccc(=O)oc3c2[C@H](O)[C@@H]1O [cis-khellactone]
- Partition Coefficients (Pi) [1, 4]: 2.50
- percentage of time spent in central area (5-dpf zebrafish larvae [2]; [5]): significant increases
- percentage of time spent in central area (5-dpf zebrafish larvae [2]; dark phase vs DMSO-treated group in dark phase, 3 μM): significant increases
- percentage of time spent in central area (5-dpf zebrafish larvae [2]; [6]): significant increases
- percentage of time spent in central area (5-dpf zebrafish larvae [2]; [7]): significant increases
- percentage of time spent in central area (5-dpf zebrafish larvae [2]; [8]): significant increases
- percentage of distance moved in central area (5-dpf zebrafish larvae [2]; dark phase vs DMSO-treated group in dark phase, all tested concentrations (1.5, 3, 6, 9, 12.5, 25 μM)): not observed
- locomotor activity (average distance moved per 1-min time bin) (5-dpf zebrafish larvae [2]; [9]): increase
- percentage of distance moved in central area (5-dpf zebrafish larvae [2]; [9]): increase
- percentage of time spent in central area (5-dpf zebrafish larvae [2]; [9]): increase
- locomotor activity (average distance moved per 1-min time bin) (5-dpf zebrafish larvae [2]; [10]): increase
- percentage of time spent in central area (5-dpf zebrafish larvae [2]; [10]): increase
- locomotor activity (average distance moved per 1-min time bin) (5-dpf zebrafish larvae [2]; [11]): increase
- percentage of distance moved in central area (5-dpf zebrafish larvae [2]; [11]): increase
- locomotor activity (average distance moved per 1-min time bin) (5-dpf zebrafish larvae [2]; [12]): increase
- percentage of distance moved in central area (5-dpf zebrafish larvae [2]; [12]): increase
- locomotor activity (average distance moved per 1-min time bin) (5-dpf zebrafish larvae [2]; [13]): increase
- percentage of distance moved in central area (5-dpf zebrafish larvae [2]; [13]): increase
- percentage of time spent in central area (5-dpf zebrafish larvae [2]; [13]): increase
- locomotor activity (average distance moved per 1-min time bin) (5-dpf zebrafish larvae [2]; [14]): increase
- percentage of distance moved in central area (5-dpf zebrafish larvae [2]; [14]): increase
- percentage of time spent in central area (5-dpf zebrafish larvae [2]; [14]): increase
- percentage of time spent in central area (5-dpf zebrafish larvae [2]; light phase vs DMSO-treated group in light phase, 6 μM): significant increase
- percentage of time spent in central area (5-dpf zebrafish larvae [2]; light phase vs DMSO-treated group in light phase, 9 μM): significant increase
- locomotor activity (average distance moved per 1-min time bin) (5-dpf zebrafish larvae [2]; light phase vs DMSO-treated group in light phase, all tested concentrations (1.5, 3, 6, 9, 12.5, 25 μM)): not noticed
- anxiolytic activity (authors' overall statement) (5-dpf zebrafish larvae [2]; zebrafish larvae model): weakest activity
- spontaneous locomotor activity (average distance moved) (5-dpf zebrafish larvae [3]; all tested concentrations (1.5, 3, 6, 9, 12.5, 25 µM)): has not influenced
- time spent in the central arena (5-dpf zebrafish larvae [3]; 40 min continuous light, one-way ANOVA between tested groups, 1.5, 3, 6, 9, 12.5, 25 µM): not showed

Structure (SMILES): C/C=C(/C)C(=O)O[C@H]1c2c(ccc3ccc(=O)oc23)OC(C)(C)[C@H]1O [d-laserpitin]
- Partition Coefficients (Pi) ([1]; solvent system II, hexane/ethyl acetate/methanol/water 6/5/6/5 (v/v/v/v)): 0.84
- locomotor activity (average distance moved per 1-min time bin) (5-dpf zebrafish larvae [2]; [7]): significant decreases
- percentage of distance moved in central area (5-dpf zebrafish larvae [2]; [7]): significant increases
- percentage of time spent in central area (5-dpf zebrafish larvae [2]; [7]): significant increases
- locomotor activity (average distance moved per 1-min time bin) (5-dpf zebrafish larvae [2]; [8]): significant decreases
- percentage of distance moved in central area (5-dpf zebrafish larvae [2]; [8]): significant increases
- percentage of time spent in central area (5-dpf zebrafish larvae [2]; [8]): significant increases
- locomotor activity (average distance moved per 1-min time bin) (5-dpf zebrafish larvae [2]; [15]): significant decreases
- percentage of distance moved in central area (5-dpf zebrafish larvae [2]; [15]): significant increases
- percentage of time spent in central area (5-dpf zebrafish larvae [2]; [15]): significant increases
- percentage of distance moved in central area (5-dpf zebrafish larvae [2]; [13]): increase
- locomotor activity (average distance moved per 1-min time bin) (5-dpf zebrafish larvae [2]; [14]): increase
- percentage of distance moved in central area (5-dpf zebrafish larvae [2]; [14]): increase
- percentage of time spent in central area (5-dpf zebrafish larvae [2]; [14]): increase
- locomotor activity (average distance moved per 1-min time bin) (5-dpf zebrafish larvae [2]; [16]): increase
- percentage of distance moved in central area (5-dpf zebrafish larvae [2]; [16]): increase
- percentage of time spent in central area (5-dpf zebrafish larvae [2]; [16]): increase
- distance moved by the larvae in the central arena (5-dpf zebrafish larvae [2]): significantly increased
- time spent in the central area (5-dpf zebrafish larvae [2]): significantly increased
- percentage of distance moved in central area (5-dpf zebrafish larvae [2]; [17]): decreased
- percentage of time spent in central area (5-dpf zebrafish larvae [2]; [17]): significant increase
- percentage of distance moved in central area (5-dpf zebrafish larvae [2]; [18]): significant increase
- percentage of time spent in central area (5-dpf zebrafish larvae [2]; [18]): significant increase
- percentage of distance moved in central area (5-dpf zebrafish larvae [2]; [19]): significant increase
- percentage of time spent in central area (5-dpf zebrafish larvae [2]; [19]): significant increase
- spontaneous locomotor activity (average distance moved) (5-dpf zebrafish larvae [3]; all concentrations (12.5, 25, 50 µM)): has not influe nced

Structure (SMILES): CC(C)(O)C(O)Cc1c(O)ccc2ccc(=O)oc12 (stereo not drawn) [devenyol]
- Partition Coefficients (Pi) [1, 4]: 0.80
- anxiolytic activity (authors' overall statement) (5-dpf zebrafish larvae [2]; concentrations of 1.5, 6, 9 and 15 μM): active
- locomotor activity (average distance moved per 1-min time bin) (5-dpf zebrafish larvae [2]; [5]): decreases
- percentage of distance moved in central area (5-dpf zebrafish larvae [2]; [5]): significant increases
- percentage of time spent in central area (5-dpf zebrafish larvae [2]; [5]): significant increase
- percentage of distance moved in central area (5-dpf zebrafish larvae [2]; [20]): significant increases
- percentage of time spent in central area (5-dpf zebrafish larvae [2]; [20]): significant increase
- percentage of distance moved in central area (5-dpf zebrafish larvae [2]; [6]): significant increases
- percentage of time spent in central area (5-dpf zebrafish larvae [2]; [6]): significant increase
- percentage of distance moved in central area (5-dpf zebrafish larvae [2]; [21]): significant increases
- percentage of time spent in central area (5-dpf zebrafish larvae [2]; [21]): significant increase
- locomotor activity (average distance moved per 1-min time bin) (5-dpf zebrafish larvae [2]; [9]): significant increases
- percentage of distance moved in central area (5-dpf zebrafish larvae [2]; [9]): increase
- locomotor activity (average distance moved per 1-min time bin) (5-dpf zebrafish larvae [2]; [10]): significant increases
- percentage of distance moved in central area (5-dpf zebrafish larvae [2]; [10]): increase
- locomotor activity (average distance moved per 1-min time bin) (5-dpf zebrafish larvae [2]; [11]): significant increases
- percentage of distance moved in central area (5-dpf zebrafish larvae [2]; [11]): increase
- locomotor activity (average distance moved per 1-min time bin) (5-dpf zebrafish larvae [2]; [12]): significant increases
- percentage of distance moved in central area (5-dpf zebrafish larvae [2]; [12]): increase
- locomotor activity (average distance moved per 1-min time bin) (5-dpf zebrafish larvae [2]; [22]): significant increases
- percentage of distance moved in central area (5-dpf zebrafish larvae [2]; [22]): increase
- percentage of time spent in central area (5-dpf zebrafish larvae [2]; dark phase vs light phase within same group, all concentrations (1.5, 3, 6, 9, 15 μM)): increase
- distance moved by the larvae in the central arena (5-dpf zebrafish larvae [2]): significantly increased
- time spent in the central area (5-dpf zebrafish larvae [2]): significantly increased
- spontaneous locomotor activity (average distance moved) (5-dpf zebrafish larvae [3]; all concentrations (1.5, 3, 6, 9, 15 µM)): has not influenced

Structure (SMILES): CN1C(=O)CN=C(c2ccccc2)c2cc(Cl)ccc21 [diazepam, reference compound]
- locomotor activity (average distance moved per 1-min time bin) (5-dpf zebrafish larvae [2]; [23]): significant decreases; also recorded: decrease
- percentage of distance moved in central area (5-dpf zebrafish larvae [2]; [23]): significant increases
- percentage of time spent in central area (5-dpf zebrafish larvae [2]; [23]): significant increases
- percentage of distance moved in central area (5-dpf zebrafish larvae [2]; [24]): increase
- percentage of time spent in central area (5-dpf zebrafish larvae [2]; [24]): increase
- distance moved by the larvae in the central arena (5-dpf zebrafish larvae [2]): significantly increased
- time spent in the central area (5-dpf zebrafish larvae [2]): significantly increased
- percentage of distance moved in central area (5-dpf zebrafish larvae [2]; [25]): significant increase
- percentage of time spent in central area (5-dpf zebrafish larvae [2]; [25]): significant increase
- percentage of distance moved in the central arena (5-dpf zebrafish larvae [3]; [26]): increased
- percentage of time spent in the central arena (5-dpf zebrafish larvae [3]; [26]): increase
